Measurements: patent publication US10316050B2, “PT (IV) complexes containing 4,4′-disubstituted-2,2′-bipyridyl and their use in cancer therapy” (THE BOARD OF REGENTS OF THE NEVADA SYSTEM OF HIGHER …, priority 2014, dated 2019)

Experiments:
Format in all cases: cell-based, human
[1] = test system: A549 cells; assay: Annexin V/PI flow cytometry, A549; settings: A549, 25 μM Pt(IV)-4C or 10 μM Pt(IV)-5C for 5 hours, analyzed 12 hours post treatment
Protocol: FIG. 11 is a series of graphs showing flow cytometry analysis of Annexin V/PI staining in A549 cells (top) and DU145 cells (bottom) treated with Pt(IV)-4C and Pt(IV)-5C. A549 cells were treated for 5 hours with control (left), 25 μM Pt(IV)-4C (center), or 10 μM Pt(IV)-5C (right), and analyzed 12 hours post treatment. DU145 cells were treated for 1 hour with control (left), 10 μM Pt(IV)-4C (center), or 2.5 μM Pt(IV)-5C (right) and analyzed 12 hours post treatment. Q1=PI+, represents necrotic cells; Q2=Annexin V/PI+, representing late apoptotic/necrotic cells; Q3=Annexin V+, representing early apoptotic cells; Q4=AnnexinV/PI−, representing live cells. Data are representative of three independent experiments.
Cells (˜50 to 60% confluent in 60 mm dishes) were treated as indicated with the platinum compound. After treatment, the floating cells were collected, and both attached and floating cells were washed 2× with PBS. The cells were resuspended in fresh medium and incubated as indicated. The cells were harvested (both the floating and attached cells were collected), counted, and pelleted. The cells were then washed two times with 5 mL of Ca^2+ and Mg^2+ free PBS. The pellets were then washed in 2.0 mL of 1× Annexin-V Binding buffer (BD Bioscience, San Jose, CAS) and centrifuged at 500×g for 5 minutes. […] A quantitative measure of these event shifts was accomplished by gating. […]

[2] = test system: phosphorylated H2AX (γH2AX) in A549 cells; assay: Flow cytometry of phosphorylated H2AX, A549; settings: A549, 25 μM Pt(IV)-4C or 7.5 μM Pt(IV)-5C for 6 hours, analyzed 12 hours post treatment
Protocol: FIG. 9 is a series of graphs plotting Pt(IV) complex-induced phosphorylation of H2AX in A549 cells (top panels) and DU145 cells (bottom panels). A549 cells were treated with control (left), 25 μM Pt(IV)-4C (center), or 7.5 μM Pt(IV)-5C (right) for 6 hours, and analyzed 12 hours post treatment. DU145 cells were treated for 2 hours with control (left), 10 μM Pt(IV)-4C (center), or 2.5 μM Pt(IV)-5C (right), and analyzed 7 hours post treatment. Data are representative of three independent experiments.
Cells (200,000 to 250,000) were seeded in 60 mm dishes and incubated at 37° C. in a humidified, 5% CO2 atmosphere for 2 days to reach ˜50-60% confluence. The cells were treated with the platinum complexes as indicated, the floating cells were collected, and both attached and floating cells were washed 2× with PBS. The cells were resuspended in fresh medium and incubated as indicated. After incubation, both the floating and attached cells were collected and fixed by incubation in 4% formaldehyde for 10 minutes at room temperature. The fixed cells were pelleted and permeabilized by incubation in 500 μL of ice-cold methanol at 4° C. for 10 minutes. The samples were stored at −20° C. until analysis. For analysis, the cells were pelleted and washed 2× with 1% BSA in PBS. […] After washing 2× with 1% BSA, the cells were resuspended in PBS and analyzed on a Becton Dickinson FACS Calibur. […]

[3] = test system: A549 cells; assay: Hoechst/PI staining, confocal microscopy, A549
Protocol: Cells (100,000 to 125,000) were seeded into 35 mm dishes and incubated for 48 hours at 37° C. The cells were treated with control, Pt(IV)-4C, or Pt(IV)-5C, and while in the dark, the cells were washed 2× with 1 mL PBS. After washing, 1 mL of a 2 μg/mL Hoechst 33342 and 10 μg/mL PI solution (in PBS) was added, and the cells were incubated for 15 minutes at room temperature. Images were acquired within 5 minutes with a Nikon A1R confocal laser scanning microscopy system (CLSM) mounted on a Nikon Eclipse Ti. At least three random areas on each dish were imaged.
Analysis of Hoechst (Ho) and PI staining by confocal microscopy also was performed to detect cell death. PI stains cells with membrane damage, whereas Ho stains both live and apoptotic cells (although apoptotic cells have more intense Ho fluorescence). […] Additionally, unlike A549, the PI positive cells in Pt(IV)-4C treated cells were higher than Pt(IV)-5C treated cells.

Row | Compound | Annexin V/PI staining (apoptosis) [1] | level of phosphorylated H2AX (γH2AX) [2] | Hoechst (Ho) fluorescence compared to control [3] | PI fluorescence compared to control [3]
1 | CC(=O)[O][Pt]([Cl])([Cl])[O]C(C)=O.CCCCCOc1ccnc(-c2cc(OCCCCC)ccn2)c1 [Pt(IV)-5C, [Pt(IV)Cl2(OAc)2(4,4′-dipentoxy-2,2′-bipyridine)]] | induce apoptosis | increase of γH2AX | increased Ho fluorescence | no difference
2 | [Pt(IV)Cl2(OAc)2(4,4′-dibutoxy-2,2′-bipyridine)] [Pt(IV)-4C] | induce apoptosis | increase of γH2AX | increased Ho fluorescence | increased PI positive cells
